Results reported in patent publication US20230183243A1, “HETEROARYL DERIVATIVES AND PHARMACEUTICAL COMPOSITION COMPRISING SAME AS ACTIVE INGREDIENT” (VORONOI INC., priority 2019, published 2023).

Tests used:
MDA-MB-231 cells = assay: Inhibition of proliferation of triple-negative breast cancer cells, CellTiter-Glo; format: cell-based; details: Homo sapiens, 120 h; MDA-MB-231, cultured for 5 days
Summary of the method: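 MDA-MB-231 cells pre-cultured 24 h (5% CO2, 37 °C), then exposed to compound for 5 days at 12 three-fold dilutions, final 10 μM to 0.05 nM. Viability read by CellTiter-Glo luminescence after 10 min at 37 °C; growth inhibition calculated relative to untreated solvent-control cells.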

TTK = molecular target: T1, TTK (Homo sapiens, UniProt P33981); assay: TTK enzyme activity, ADP-Glo kinase assay; format: biochemical; design: purchased SignalChem T20-10G; details: purified human TTK, ATP 10 μM, 25° C., 2 hours
T1 sequence (P33981 1-857): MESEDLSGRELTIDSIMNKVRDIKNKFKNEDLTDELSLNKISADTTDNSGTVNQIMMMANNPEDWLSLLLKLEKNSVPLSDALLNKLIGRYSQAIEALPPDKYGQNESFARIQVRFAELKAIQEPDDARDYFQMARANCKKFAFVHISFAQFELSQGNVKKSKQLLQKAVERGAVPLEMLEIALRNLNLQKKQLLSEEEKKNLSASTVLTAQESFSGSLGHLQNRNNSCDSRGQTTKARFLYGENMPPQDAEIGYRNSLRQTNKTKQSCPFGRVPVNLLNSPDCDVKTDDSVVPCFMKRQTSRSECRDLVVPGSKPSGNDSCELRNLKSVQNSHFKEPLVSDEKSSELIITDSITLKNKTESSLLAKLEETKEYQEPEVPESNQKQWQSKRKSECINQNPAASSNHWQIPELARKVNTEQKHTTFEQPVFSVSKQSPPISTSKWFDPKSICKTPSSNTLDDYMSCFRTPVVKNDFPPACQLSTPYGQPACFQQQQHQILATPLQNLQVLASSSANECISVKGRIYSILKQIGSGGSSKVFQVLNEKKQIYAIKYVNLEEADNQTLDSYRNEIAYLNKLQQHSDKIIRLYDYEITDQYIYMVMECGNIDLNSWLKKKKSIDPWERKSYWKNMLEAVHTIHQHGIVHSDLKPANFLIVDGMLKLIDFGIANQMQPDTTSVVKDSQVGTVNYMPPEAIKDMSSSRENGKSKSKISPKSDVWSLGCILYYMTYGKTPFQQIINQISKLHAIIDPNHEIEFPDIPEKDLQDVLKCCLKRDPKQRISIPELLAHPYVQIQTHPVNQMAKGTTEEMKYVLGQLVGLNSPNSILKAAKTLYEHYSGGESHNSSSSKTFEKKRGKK
Summary of the method: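 ADP-Glo read-out; percent inhibition at each compound concentration was relative to the solvent-only control. The reactions contained 25 ng enzyme, 0.2 μg substrate and 10 μM ATP in 40 mM Tris-HCl pH 7.4 with 20 mM MgCl2, 0.5 mg/mL BSA and 50 μM DTT, and ran 2 h at 25 °C.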

SHP-77 = assay: Inhibition of proliferation of small cell lung cancer cells, CellTiter-Glo; format: cell-based; details: Homo sapiens, SHP77, 120 h; SHP-77, cultured for 5 days
Method: Specifically, the following test was performed to evaluate the inhibitory activity of the compound according to the present invention against the cell proliferation in the SCLC cells.
To check an inhibitory ability of cell growth in one SCLC cell line, a test was performed as follows. Cells were seeded in 180 μL of a culture broth at a density of 2,000 to 3,000 cells/well in a white clear bottom 96-well plate (Corning) according to the growth ability of each cell, and then cultured for 24 hours under conditions of 5% CO2 and 37° C. Thereafter, the compound was prepared by diluting a 10 mM stock solution three-fold with 100% DMSO at a total of 12 concentrations so that a peak concentration of the compound was in a range of 10 mM to 0.05 μM, and the diluted compound was then diluted in each cell culture medium so that a final concentration of the compound was in a range of 100 μM to 0.5 nM. 20 μL of a diluted solution diluted with a medium was added to the cell solution in which cells were seeded in the 96-well plate on the previous day so that a final concentration of the diluted solution was in a range of 10 μM to 0.05 nM. Each of the cells was cultured for 5 days. To check cell viability, a mixture provided in aCellTiter-Glo® Luminescent Cell Viability Assay Kit (Promega) was added to each of the cultured cell media, and cultured for another 10 minutes under a condition of 37° C. Then, a degree of luminescence (fluorescence) was measured. A degree of inhibition of the cell growth according to the treatment concentration of each of the compounds was calculated based on the fluorescence of the solvent control cells which were not treated with the compound. In this case, the concentration of each of the compounds inhibiting 50% of the cell growth was determined to be a GI50 (nM) value, and calculated using Prism (Version 7.01; GraphPad) software.

Row | GI50 (MDA-MB-231 cells) [µM] | IC50 (TTK) [µM] | GI50 (SHP-77) [µM] | SMILES
1 | < 0.1 | < 0.05 | < 0.1 | COc1cc(-c2nncn2C)ccc1Nc1nc(NC2CCOCC2)c2c(C#N)c[nH]c2n1 [Example 90, 2-((2-methoxy-4-(4-methy1-4H-1,2,4-triazol-3-yl)phenyl)amino)-4-((tetrahydro-2H-pyran-4-yl)amino)-7H-pyrrolo[2,3-d] pyrimidine-5-carbonitrile]
2 | < 0.1 | < 0.05 | < 0.1 | COc1cc(-c2c(C)noc2C)ccc1Nc1nc(NC2CCOCC2)c2c(C#N)c[nH]c2n1 [Example 91]
3 | < 0.1 | < 0.05 | < 0.1 | COc1cc(-c2cnn(C)c2)ccc1Nc1nc(NC2CCOCC2)c2c(C#N)c[nH]c2n1 [Example 92, 2-((2-methoxy-4-(1-methyl-1H-pyrazol-4-yl)phenyl)amino)-4-((tetrahydro-2H-pyran-4-yl)amino)-7H-pyrrolo[2,3-d] pyrimidine-5-carbonitrile]
4 | < 0.1 | < 0.05 | < 0.1 | COc1cc(-n2ccnc2C)ccc1Nc1nc(NC2CCOCC2)c2c(C#N)c[nH]c2n1 [Example 93, 2-((2-methoxy-4-(2-methyl-1H-imidazol-1-yl)phenyl)amino)-4-((tetrahydro-2H-pyran-4-yl)amino)-7H-pyrrolo[2,3-d] pyrimidine-5-carbonitrile]
5 | < 0.1 | < 0.05 | < 0.1 | COCCNc1nc(Nc2ccc(-n3ccnc3C)cc2OC)nc2[nH]cc(C#N)c12 [Example 98, 2-((2-methoxy-4-(2-methyl-1H-imidazol-1-yl)phenyl)amino)-4-((2-methoxyethyl)amino)-7H-pyrrolo[2,3-d] pyrimidine-5-carbonitrile]
6 | 0.1 to 1 | 0.2 to 1 | 0.1 to 1 | COc1cc(-c2c(C)noc2C)c(F)cc1Nc1nc(NC2CCOCC2)c2c(C#N)c[nH]c2n1 [Example 102, 2-((4-(3,5-dimethylisoxazol-4-yl)-5-fluoro-2-methoxyphenyl)amino)-4-((tetrahydro-2H-pyran-4-yl)amino)-7H-pyrrolo[2,3-d] pyrimidine-5-carbonitrile]
7 | 0.1 to 1 | 0.2 to 1 | 0.1 to 1 | COc1cc(-c2ccnn2C)c(F)cc1Nc1nc(NC2CCCC2)c2c(C#N)c[nH]c2n1 [Example 103, 4-(cyclopentylamino)-2-((5-fluoro-2-methoxy-4-(1-methyl-1H-pyrazol-5-yl)phenyl)amino)-7H-pyrrolo[2,3-d] pyrimidine-5-carbonitrile]
8 | 0.1 to 1 | 0.05 to 0.2 | 0.1 to 1 | COc1cc(-c2ccnn2C)c(F)cc1Nc1nc(NC2CCCCC2)c2c(C#N)c[nH]c2n1 [Example 105, 4-(cyclohexylamino)-2-((5-fluoro-2-methoxy-4-(1-methyl-1H-pyrazol-5-yl)phenyl)amino)-7H-pyrrolo[2,3-d] pyrimidine-5-carbonitrile]
9 | < 0.1 | 0.05 to 0.2 | < 0.1 | COc1cc(-c2ccnn2C)ccc1Nc1nc(NC2CCOCC2)c2c(C(F)(F)F)c[nH]c2n1 [Example 106, N^2-(2-methoxy-4-(1-methyl-1H-pyrazol-5-yl)phenyl)-N^4-(tetrahydro-2H-pyran-4-yl)-5-(trifluoromethy1)-7H-pyrrolo[2,3-d] pyrimidine-2,4-diamine]

The next lines start with the compound.

Row | SMILES | GI50 (MDA-MB-231 cells) [µM] | IC50 (TTK) [µM] | GI50 (SHP-77) [µM]
10 | Cn1cc(-c2ccc(Nc3nc(NC4CCOCC4)c4c(C#N)c[nH]c4n3)c3c2OCCO3)cn1 [Example 89, 2-((8-(1-methyl-1H-pyrazol-4-yl)-2,3-dihydrobenzo[b][1,4]dioxin-5-yl)amino)-4-((tetrahydro-2H-pyran-4-yl)amino)-7H-pyrrolo[2,3-d] pyrimidine-5-carbonitrile] | < 0.1 | < 0.05 | < 0.1
11 | COCCNc1nc(Nc2ccc(-c3nncn3C)cc2OC)nc2[nH]cc(C#N)c12 [Example 95, 2-((2-methoxy-4-(4-methyl-4H-1,2,4-triazol-3-yl)phenyl)amino)-4-((2-methoxyethyl)amino)-7H-pyrrolo[2,3-d] pyrimidine-5-carbonitrile] | 0.1 to 1 | < 0.05 | < 0.1
12 | COCCNc1nc(Nc2ccc(-c3c(C)noc3C)cc2OC)nc2[nH]cc(C#N)c12 [Example 96] | < 0.1 | < 0.05 | < 0.1
13 | COCCNc1nc(Nc2ccc(-c3cnn(C)c3)cc2OC)nc2[nH]cc(C#N)c12 [Example 97, 2-((2-methoxy-4-(1-methyl-1H-pyrazol-4-yl)phenyl)amino)-4-((2-methoxyethyl)amino)-7H-pyrrolo[2,3-d] pyrimidine-5-carbonitrile] | < 0.1 | < 0.05 | < 0.1
14 | Cn1nccc1-c1ccc(Nc2nc(NC3CC3)c3c(C#N)c[nH]c3n2)c2c1OCCO2 [Example 99, 4-(cyclopropylamino)-2-((8-(1-methyl-1H-pyrazol-5-yl)-2,3-dihydrobenzo[b][1,4]dioxin-5-yl)amino)-7H-pyrrolo[2,3-d] pyrimidine-5-carbonitrile] | < 0.1 | < 0.05 | < 0.1
15 | Cn1nccc1-c1ccc(Nc2nc(NCC3CCC3)c3c(C#N)c[nH]c3n2)c2c1OCCO2 [Example 100, 4-((cyclobutylmethyl)amino)-2-((8-(1-methyl-1H-pyrazol-5-yl)-2,3-dihydrobenzo[b][1,4]dioxin-5-yl)amino)-7H-pyrrolo[2,3-d] pyrimidine-5-carbonitrile] | < 0.1 | 0.05 to 0.2 | < 0.1
16 | COC[C@@H](C)Nc1nc(Nc2ccc(-c3ccnn3C)c3c2OCCO3)nc2[nH]cc(C#N)c12 [Example 101] | < 0.1 | < 0.05 | < 0.1
17 | COc1cc(-c2c(C)noc2C)c(F)cc1Nc1nc(NC2CCCC2)c2c(C#N)c[nH]c2n1 [Example 104, 4-(cyclopentylamino)-2-((4-(3,5-dimethylisoxazol-4-yl)-5-fluoro-2-methoxyphenyl)amino)-7H-pyrrolo[2,3-d] pyrimidine-5-carbonitrile] | 0.1 to 1 | 0.05 to 0.2 | 0.1 to 1
18 | Cn1nccc1-c1ccc(Nc2nc(NC3CCOCC3)c3c(C(F)(F)F)c[nH]c3n2)c2c1OCCO2 [Example 107, N^2-(8-(1-methyl-1H-pyrazol-5-yl)-2,3-dihydrobenzo[b][1,4]dioxin-5-yl)-N^4-(tetrahydro-2H-pyran-4-yl)-5-(trifluoromethyl)-7H-pyrrolo[2,3-d] pyrimidine-2,4-diamine] | < 0.1 | 0.05 to 0.2 | < 0.1
19 | O=C1CCCN1c1ccc(Nc2nc(NC3CCOCC3)c3c(C(F)(F)F)c[nH]c3n2)c2c1OCCO2 [Example 108, 1-(8-((4-((tetrahydro-2H-pyran-4-yl)amino)-5-(trifluoromethyl)-7H-pyrrolo[2,3-d]pyrimidin-2-yl)amino)-2,3-dihydrobenzo[b][1,4]dioxin-5-yl)pyrrolidin-2-one] | 0.1 to 1 | < 0.05 | 0.1 to 1
